Experiment [1] addresses T1, human GIP receptor (Homo sapiens, UniProt P48546).
T1 construct: host or cells: COS-7
T1 sequence (P48546 22-466): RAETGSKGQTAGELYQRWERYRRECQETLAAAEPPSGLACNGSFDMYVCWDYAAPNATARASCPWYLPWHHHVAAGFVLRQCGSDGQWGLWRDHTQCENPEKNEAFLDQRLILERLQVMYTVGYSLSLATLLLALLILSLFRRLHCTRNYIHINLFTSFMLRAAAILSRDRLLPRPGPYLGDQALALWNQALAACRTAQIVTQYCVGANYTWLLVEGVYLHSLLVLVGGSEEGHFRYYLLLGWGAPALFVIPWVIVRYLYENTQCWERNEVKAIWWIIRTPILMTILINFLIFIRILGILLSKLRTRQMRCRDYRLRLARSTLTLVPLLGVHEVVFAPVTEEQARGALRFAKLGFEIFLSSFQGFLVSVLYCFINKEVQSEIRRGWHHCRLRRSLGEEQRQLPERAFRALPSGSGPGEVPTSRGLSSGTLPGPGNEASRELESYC
Kind of experiment: cAMP accumulation, antagonism of human GIP(1‐42) in transfected COS‐7 cells. The class given is cell-based. The conditions noted are these: COS‐7 transiently transfected with human GIPR; 10 min preincubation with antagonist, then human GIP(1‐42) at 50%–80% of Emax for 20 min; HitHunter cAMP; Hill slope −1.0; n = 5 independent experiments; read-out: IC50, inhibition of hGIP‐induced cAMP accumulation, human GIPR. The procedure: COS‐7 cells were cultured at 10% CO2 and 37°C in Dulbecco's Modified Eagle Medium 1885 supplemented with 10% foetal bovine serum, 2‐mM glutamine, 180‐units ml^−1 penicillin and […] streptomycin. Transient transfection of the cells with either human or mouse GIP receptor was performed using the calcium phosphate precipitation method as previously described (van der Velden et al., [2021]). A second set of cells was transiently transfected with either mouse GLP‐1 or GLP‐2 receptor. Following the day after transfection, the cells were seeded in white 96‐well plates with a density of 35.000 cells per well. The next day the assay was initiated by washing the cells with HEPES buffered saline (HBS) followed by an incubation step with HBS and 1‐mM 3‐isobutyl‐1‐methylxanthine for 30 min at 37°C. For agonist studies, the ligands were then added and incubated for an additional 30 min at 37°C. […] Luminescence was measured by PerkinElmer™ Envision 2014 Multilabel Reader. […]
Results are presented as mean ± SE. Data were analysed with one‐way and two‐way analysis of variance (ANOVA) with Tukey's or Sidak multiple comparisons test and Student's unpaired t tests where appropriate. […] For the in vitro data IC50 values were determined by nonlinear regression using GraphPad Prism 9 (San Diego, California, USA). […]

For experiment [2], the system named is Female ovariectomised C57Bl6/J mice. Kind of experiment: Terminal plasma adiponectin, triglyceride and glycerol. The conditions noted are these: 8 weeks of 300 nmol·kg−1 s.c. daily. The class given is in vivo, mouse. The source says: A week after ovariectomy, at 10 weeks of age, animals were randomized into groups and placed on a 60 kcal% HFD (HFD, D12492, Research Diets, New Brunswick, NJ, USA) or a control diet (10 kcal% fat, D12450J, Research Diets) for 8 weeks. Group sizes were as follows: Vehicle/control diet, n = 12; mGIPAnt‐1/control diet, n = 12; Vehicle/HFD, n = 11; mGIPAnt‐1/HFD, n = 12. The reduction of animal numbers in group Vehicle/HFD was due to unexpected loss of an animal. Animals received a daily s.c. injection at 4:30 PM with mGIPAnt‐1 (300‐nmol·kg^−1) or vehicle. Body weight and body composition were assessed weekly (LF90II body composition analyzer, Bruker, Billerica, MA, USA). On the final experimental day, animals were anaesthetized with an intraperitoneal injection of 90 mg·kg^−1 ketamine and 10‐mg·kg^−1 xylazine. The microchip was quickly removed from HM‐2 cage animals and a final body composition measurement was performed on all animals. A terminal retro‐orbital blood sample was taken, mice were killed through cervical dislocation and tissues were quickly dissected and weighed.
Insulin levels in intraperitoneal glucose tolerance test and oral glucose tolerance test plasma samples were measured using a mouse insulin ELISA (catalogue no. 10‐1247‐10; Mercodia AB, Uppsala, Sweden). Adiponectin levels in terminal plasma samples were measured using a mouse adiponectin ELISA kit (catalogue no. 80569, Crystal Chem, Elk Grove Village, IL, USA). Adiponectin samples were carefully diluted in kit‐specific assay buffer. The manufacturer's instructions were followed closely.
Triglyceride and free glycerol levels in terminal plasma samples were determined using a triglyceride and free glycerol kit (TR0100‐1KT, Sigma‐Aldrich, St. Louis, MO, USA).

Structures are written as SMILES. Where a SMILES comes first, the peptide text is derived from it. The star is where a group is joined. C16 diacid = O=C(O)CCCCCCCCCCCCCCC(=O)*

As a reminder, the IC50 is the point on the concentration scale where inhibition reaches its midpoint. With `CC[C@H](C)[C@H](NC(=O)[C@H](CO)NC(=O)[C@H](Cc1ccc(O)cc1)NC(=O)[C@H](CC(=O)O)NC(=O)[C@H](CO)NC(=O)[C@@H](NC(=O)[C@H](Cc1ccccc1)NC(=O)[C@@H](NC(=O)CNC(=O)[C@@H](N)CCC(=O)O)[C@@H](C)O)[C@@H](C)CC)C(=O)N[C@@H](C)C(=O)N[C@@H](CCSC)C(=O)N[C@@H](CC(=O)O)C(=O)N[C@@H](CCCCN)C(=O)N[C@H](C(=O)N[C@@H](CCCCNC(=O)CCCCCCCCCCCCCCC(=O)O)C(=O)N[C@@H](CCC(N)=O)C(=O)N[C@@H](CCC(N)=O)C(=O)N[C@@H](CC(=O)O)C(=O)N[C@@H](Cc1ccccc1)C(=O)N[C@H](C(=O)N[C@@H](CC(N)=O)C(=O)N[C@@H](Cc1c[nH]c2ccccc12)C(=O)N[C@@H](CC(C)C)C(=O)N[C@@H](CC(C)C)C(=O)N[C@@H](C)C(=O)N[C@@H](CCC(N)=O)C(=O)N[C@@H](CCCCN)C(=O)NCC(=O)N[C@@H](CCCCN)C(=O)N[C@@H](CCCCN)C(=O)N[C@@H](CC(N)=O)C(=O)N[C@@H](CC(=O)O)C(=O)N[C@@H](Cc1c[nH]c2ccccc12)C(=O)N[C@@H](CCCCN)C(=O)N[C@@H](Cc1c[nH]cn1)C(=O)N[C@@H](CC(N)=O)C(=O)O)C(C)C)[C@@H](C)CC` [mGIPAnt‐1] (H-EGTFISDYSIAMDKIK(C16 diacid)QQDFVNWLLAQKGKKNDWKHN-OH), the concentration for half-maximal inhibition (IC50) in experiment [1] amounted to 0.011 µM. In addition, in experiment [2], the terminal plasma glycerol result is “did not significantly affect” and the terminal plasma triglyceride entry is reported as “did not significantly affect”. In addition, the terminal plasma adiponectin result in experiment [2] (ELISA) is reported as “did not significantly affect”. Moreover, in experiment [2] (did not reach significance), the “terminal plasma glycerol, HFD versus Vehicle/HFD” value is recorded as “trend towards increased glycerol levels”.

Values taken from PMC9544171, “Glucose‐dependent insulinotropic polypeptide receptor antagonist treatment causes a reduction in weight gain in ovariectomised high fat diet‐fed mice” (British Journal of Pharmacology, 2022).
